# Measurements from US11253589B2, “Modulation of the immune response” (priority 2007, dated 2022).
# How the values were obtained:
# myelin specific T cells = assay: Recall response (proliferation, cytokine secretion) to MOG35-55 or anti-CD3 of cells from treated mice; assay type: in vivo, mouse
# Procedure: (§1) Cells were cultured in serum-free X-VIVO 20™ media (BioWhittaker, Walkersville, Md., USA) for 72 hours. During the last 16 hours, cells were pulsed with 1 μCi of [^3H]thymidine (PerkinElmer, Waltham, Mass., USA) followed by harvesting on glass fiber filters and analysis of incorporated [^3H]thymidine in a beta-counter (1450 Microbeta, Trilux, PerkinElmer). Alternatively, culture supernatants were collected […] activation and the cytokine concentration was determined by ELISA using antibodies for IFN-γ, IL-17, IL-4, IL-10 from BD Biosciences and antibodies to TGF-β from R&D Systems. For suppression assays, MACS purified CD4^+CD25^− T cells from naïve C57BL/6 mice (1-5×10^4 cells/well) were stimulated with antibodies to CD3 and C57BL/6 irradiated spleen cells (0.3-1.5×10^4 cells/well) for 3 days in the presence of different ratios of CD4^+ GFP^+ retrovirus-transduced T cells.
# To further characterize the suppression of EAE by AHR activation we studied the activity of myelin specific T cells induced by vaccination with MOG35-55/CFA in TCDD-treated mice.
# In addition, cells were stimulated in culture medium containing 100 μg/ml MOG35-55 for 2 days or with PMA (50 ng/ml) (Sigma-Aldrich) and ionomycin ([…]) (Calbiochem, San Diego, Calif., USA) for 4 hours, Golgistop (BD Biosciences) was added to the culture during the last 4 hours. After staining of surface markers, cells were fixed and permeabilized using Cytofix/Cytoperm and Perm/Wash buffer from BD Biosciences according to the manufacturer's instructions. All antibodies to cytokines (IFN-gamma, IL-17, IL-10) including the corresponding isotype controls were obtained from BD Biosciences. Cells were incubated (1:100) at 25° C. for 20 min and washed twice in Perm/Wash before analysis. Data were acquired on a FACSCalibur (BD Biosciences) and analyzed with FlowJo software (Tree Star, Ashland, Oreg., USA).
# We then studied the effect of ITE administration on the encephalitogenic response against myelin. EAE was induced on naïve C57BL/6 mice and ITE ([…]) was administered orally or intraperitoneally on daily basis.
# C57BL/6 mice = assay: EAE in recipient mice after transfer of CD4+ T cells from treated mice; assay type: in vivo, mouse
# Excerpt: To identify the mechanism responsible for the decreased proliferation to MOG35-55 in TCDD-treated animals shown in FIG. 4D, the CD4^+CD25^+ Treg population was depleted with magnetic beads. […] The control of the pathogenic T cell response was mediated by CD4^+CD25^+ Treg, their depletion abrogated the protective effect of the transferred cells (P<0.001, two-way ANOVA, n=4; FIG. 5C).
# To confirm that the protective effect of TCDD on EAE was Treg mediated we depleted the natural Treg with antibodies to CD25 prior to TCDD treatment. […] This protective effect was lost when CD4^+CD25^+ T cells were depleted, see FIG. 5h and Table 5.
# The control of the pathogenic T cell response was mediated by CD4^+CD25^+ Treg, their depletion from the transferred population abrogated the protective effect of the transferred cells. Thus, the Treg induced by the activation of AHR with ITE inhibit the progression of EAE.
# CD4+Foxp3:GFP+ Treg = assay: Treg suppressive activity assay; assay type: cell-based, mouse
# Procedure: as §1
# To investigate the active suppression of MOG35-55-specific Teff by Treg, Foxp3^gpf knock in mice were immunized with MOG35-55/CFA, treated daily with intreaperitoneal ITE ([…]) and the recall response to MOG35-55 and a mitogenic antibody to CD3 antibody was studied on FACS-sorted CD4^+ T cells and CD4^+ FoxP3:GFP− Teff. […] This suppressed response to MOG35-55 was lost upon removal of the CD4^+FoxP3:GFP^+ Treg (FIG. 26). To further analyze the MOG35-55-specific suppressive activity of the CD4^+FoxP3:GFP^+ Treg, they were cocultured at different ratios and assayed for the suppression of MOG35-55 or anti-CD3-triggered proliferation of CD4^+FoxP3:GFP− Teff form 2D2 mice, which harbor a TCR specific for MOG35-55.
# mouse Foxp3 locus = assay: Zebrafish microinjected with renilla-tagged mouse Foxp3 BAC; assay type: in vivo; settings: total zebrafish lysates six days after microinjection, increasing amounts of TCDD
# Procedure: A modified zebrafish based screening assay was established by microinjecting fertilized zebrafish eggs with a BAC construct encoding the complete mouse Foxp3 locus, with a renilla reporter inserted after the Foxp3 methionine start codon (ATG). Six days after microinjection, renilla activity was determined in total zebrafish lysates.
# CD4+CD25- T cells = CD4+CD25- T cells activated with antibodies to CD3 in the presence of TCDD; assay type: cell-based, mouse; settings: incubation with TCDD
# Excerpt: To rule out any direct cytotoxic or pro-apoptotic effect of TCDD on effector T cells, purified mouse CD4^+CD25^− T cells were activated in vitro with antibodies to CD3 in the presence of TCDD.
# AHR-d mice = assay: EAE induced with MOG35-55/CFA in AHR-d mice; assay type: in vivo; settings: TCDD 1 μg/mouse
# Procedure: C57BL/6 mice were given a single intraperitoneal (ip) dose of TCCD, and one day later EAE was induced by immunization with MOG35-55 in CFA. TCDD was also administered orally (1 μg/mouse) to determined whether an effective dose of this ligand can be delivered via oral administration and whether this dose is capable of reducing EAE development. EAE was induced by injecting the mice subcutaneously with […] of the MOG35-55 peptide ([…] (SEQ ID NO: 156)) in complete Freund adjuvant oil. In addition, the mice received 150 ng of pertussis toxin (Sigma-Aldrich) ip on days 0 and 2. Clinical signs of EAE were assessed according to the following score: 0, no signs of disease; 1, loss of tone in the tail; 2, hind limb paresis; 3, hind limb paralysis; 4, tetraplegia; 5, moribund.
# To confirm that the effects on EAE were mediated by the activation of AHR, we used C57BL/6 mice carrying the d allele of the ahr gene (AHR-d mice). This allele codes for a mutant AHR with a 10 fold reduction in its affinity for TCDD and other ligands (Okey et al., Mol Pharmacol. 35, 823-30 (1989)) due to mutations in its ligand binding sites.
# [1] = CD4+ T cells from ITE-treated mice vs control
# [2] = ITE 200 mg/mice daily (FIG. 22: IP), splenocytes
# [3] = cells purified from TCDD-treated Foxp3gfp mice
# [4] = draining lymph node cells of TCDD-treated mice vs control
# [5] = lymph node cells of TCDD-treated mice, 10 days after MOG35-55/CFA
# [6] = recipients of 5 × 10^6 CD4+ T cells from TCDD treated mice
# [7] = recipients of 5 × 10^6 CD4+CD25- T cells from TCDD treated mice
smiles,measurement,setting,value
"COC(=O)c1csc(C(=O)c2c[nH]c3ccccc23)n1 [ITE, 2-(1′H-indole-3′-carbonyl)-thiazole-4-carboxylic acid methyl ester]",IFNg secretion upon activation with MOG35-55,myelin specific T cells; [1],lower amounts
same,IL2 secretion upon activation with MOG35-55,myelin specific T cells; [1],lower amounts
same,IL6 secretion upon activation with MOG35-55,myelin specific T cells; [1],lower amounts
same,IL17 secretion upon activation with MOG35-55,myelin specific T cells; [1],lower amounts
same,IL-10 secretion upon activation with MOG35-55,myelin specific T cells; [1],higher amounts
same,TGFb1 secretion upon activation with MOG35-55,myelin specific T cells; [1],higher amounts
same,recall response of purified CD4+ T cells,"myelin specific T cells; Foxp3gfp mice, ITE 200 mg/mice intraperitoneal daily",suppressed response to MOG35-55 but not to anti-CD3
same,proliferative response upon activation with antibodies to CD3,myelin specific T cells; [2],no differences were seen
same,recall proliferative response to the MOG35-55 peptide,myelin specific T cells; [2],suppressed recall proliferative response
same,secretion of IFNg by lymph node cells activated with MOG35-55 or αCD3,myelin specific T cells; ITE-treated mice,significant reduction in the secretion
same,secretion of IL-17 by lymph node cells activated with MOG35-55 or αCD3,myelin specific T cells; ITE-treated mice,significant reduction in the secretion
same,protection from EAE by transfer of CD4+ T cells,C57BL/6 mice; CD4+ T cells from mice treated with oral or intraperitoneal ITE,Protection from EAE could be transferred
same,MOG35-55-specific suppressive activity of CD4+ FoxP3:GFP+ Treg,"CD4+Foxp3:GFP+ Treg; Treg from ITE-treated mice, 2D2 Teff as responders",increased MOG35-55-specific suppressive activity
"Clc1cc2c(cc1Cl)Oc1cc(Cl)c(Cl)cc1O2 [TCDD, 2,3,7,8 tetrachlorodibenzo-p-dioxin]",renilla luciferase activity (murine Foxp3 expression),mouse Foxp3 locus,increased in the presence of TCDD in a dose-dependent manner
same,proliferation of effector CD4+ Foxp3:GFP- T cells to MOG35-55,myelin specific T cells; [3],normal proliferation
same,secretion of IFNγ by effector CD4+ Foxp3:GFP- T cells upon activation with MOG35-55,myelin specific T cells; [3],significantly decreased secretion
same,secretion of IL-17 by effector CD4+ Foxp3:GFP- T cells upon activation with MOG35-55,myelin specific T cells; [3],significantly decreased secretion
same,IFNg secretion upon activation with MOG35-55,myelin specific T cells; [4],lower amounts
same,IL-17 secretion upon activation with MOG35-55,myelin specific T cells; [4],lower amounts
same,TGFb1 secretion upon activation with MOG35-55,myelin specific T cells; [4],higher amounts
same,proliferative response upon activation with antibodies to CD3,myelin specific T cells; [5],no differences were seen
same,recall proliferative response to the MOG35-55 peptide,myelin specific T cells; [5],suppressed recall proliferative response
same,Mean day of onset (Mean ± SD),C57BL/6 mice; [6],13.3 ± 0.6 days
same,Mean maximum score (mean ± SD),C57BL/6 mice; [6],0.7 ± 0.8
same,Mean day of onset (Mean ± SD),C57BL/6 mice; [7],11.0 ± 0.0 days
same,Mean maximum score (mean ± SD),C57BL/6 mice; [7],2.6 ± 1.8
same,development of EAE,C57BL/6 mice; transfer of 5×10^6 CD4+ T cells from TCDD-treated mice,significantly inhibited the development of EAE
same,T cell apoptosis (annexin-FITC staining),CD4+CD25- T cells; antibodies to CD3,did not increase T cell apoptosis
same,proliferative response,"CD4+CD25- T cells; antibodies to CD3, 72 hours",did not decrease the proliferative response
same,Mean day of onset (Mean ± SD),AHR-d mice,17.3 ± 3.0 days
same,Mean maximum score (mean ± SD),AHR-d mice,2.2 ± 1.4
same,progression of EAE,AHR-d mice,did not inhibit the progression of EAE
same,MOG35-55-specific suppressive activity of CD4+Foxp3:GFP+ T cells,CD4+Foxp3:GFP+ Treg; Treg expanded in vivo by TCDD administration and MOG35-55 immunization,increased MOG35-55-specific suppressive activity
same,proliferation and suppressive activity of CD4+Foxp3:GFP+ Treg purified from naïve mice,CD4+Foxp3:GFP+ Treg; stimulation with antibodies to CD3 and CD28 and TCDD,did not proliferate and did not show increased suppressive activity
